Measured values taken from PMC7347136 (PLoS ONE, 2020).

Key:
[1] = system: subcutaneous EOL-1 tumors; test: EOL-1 human eosinophilic leukemia xenograft model; type: in vivo, SCID mice; conditions: for tumor growth inhibition (TGI): Day 19; for median TGI: day 9
Description: Female athymic CB-17 SCID (Harlan Sprague-Dawley) mice between 6–7 weeks of age weighing approximately 22 grams were housed in a 12-h light-dark cycle at 70–74°F (21–23°C) and 40–60% humidity. Animals were fed water ad libitum (reverse osmosis, 2 ppm Cl2) and an irradiated standard rodent diet (Teklad 2919) consisting of 19% protein, 9% fat, and 4% fiber. Mice were injected subcutaneously into the right flank with 1x10^7 EOL-1 cells in 100 μl of a 1:1 HBSS:Matrigel solution. When tumors reached approximately 125–250 mm^3, animals were matched by tumor volume and then randomized into treatment and control groups before dosing was initiated. […] Cytarabine, also known as cytosine arabinoside (AraC), was administered by daily ip injection for 5 days only. Agent toxicity was assessed by effects on body weight and clinical signs. Animals were weighed twice weekly using a digital scale (Ohaus SP601). Beginning on Day 0, tumor dimensions were measured twice weekly by digital caliper (Fowler Ultra-Cal IV); tumor volume was calculated using the formula TV = width^2 x length x 0.52. […] Statistical differences in tumor volume were determined using a two-tailed One-Way Analysis of Variance (ANOVA) followed by the Dunnett’s multiple comparisons test comparing treated groups with control. For animal welfare the following methods were used: (a) methods of sacrifice: isoflurane anesthesia followed by cervical dislocation; (b) methods of anesthesia and/or analgesia: isoflurane anesthesia and (c) efforts to alleviate suffering: carprofen if animal veterinarian decides necessary or euthanasia.

MCL1 = system: MCL1; parameters: method as in earlier work; conditions: patient PBMCs; recommended phase 2 dose; cited from earlier work
CLK2 = target: T1, CLK2 (Homo sapiens, UniProt P49760); test: Carna kinase panel screen; type: biochemical; conditions: read-out: % Inhibition ± SD
T1 construct: purchased Carna Biosciences
Description: (§1) IC50 values were determined from a 10-point concentration curve using ATP concentrations approximating Km values. […] The percentage inhibition of each test solution was calculated, which allowed the IC50 value to be determined from concentration versus percentage inhibition curves by fitting to a four parameter logistic curve.

ITK = target: T2, ITK (Homo sapiens, UniProt Q08881); test: Carna kinase panel screen; type: biochemical; conditions: read-out: % Inhibition ± SD
T2 construct: purchased Carna Biosciences
Description: as §1

CDC7 = target: T3, CDC7 (Homo sapiens, UniProt O00311); test: Carna kinase panel screen; type: biochemical; conditions: read-out: % Inhibition ± SD
T3 construct: purchased Carna Biosciences
Description: as §1

skMLCK = target: T4, skMLCK (Homo sapiens, UniProt Q9H1R3); test: Carna kinase panel screen; type: biochemical; conditions: read-out: % Inhibition ± SD
T4 construct: purchased Carna Biosciences
Description: as §1

CTK = target: T5, CTK (Homo sapiens, UniProt P42679); test: Carna kinase panel screen; type: biochemical; conditions: read-out: % Inhibition ± SD
T5 construct: purchased Carna Biosciences
Description: as §1

TXK = target: T6, TXK (Homo sapiens, UniProt P42681); test: Carna kinase panel screen; type: biochemical; conditions: read-out: % Inhibition ± SD
T6 construct: purchased Carna Biosciences
Description: as §1

FES = target: T7, FES (Homo sapiens, UniProt P07332); test: Carna kinase panel screen; type: biochemical; conditions: read-out: % Inhibition ± SD
T7 construct: purchased Carna Biosciences
Description: as §1

Erk1 = target: T8, Erk1 (Homo sapiens, UniProt P27361); test: Carna kinase panel screen; type: biochemical; conditions: read-out: % Inhibition ± SD
T8 construct: purchased Carna Biosciences
Description: as §1

DYRK1A = target: T9, DYRK1A (Homo sapiens, UniProt Q13627); test: Carna kinase panel screen; type: biochemical; conditions: read-out: % Inhibition ± SD
T9 construct: purchased Carna Biosciences
Description: as §1

MST3 = target: T10, MST3 (Homo sapiens, UniProt Q9Y6E0); test: Carna kinase panel screen; type: biochemical; conditions: read-out: % Inhibition ± SD
T10 construct: purchased Carna Biosciences
Description: as §1

AKT1 = target: T11, AKT1 (Homo sapiens, UniProt P31749); test: Carna kinase panel screen; type: biochemical; conditions: read-out: % Inhibition ± SD
T11 construct: purchased Carna Biosciences
Description: as §1

PDGFRa = target: T12, PDGFRa (Homo sapiens, UniProt P16234); test: Carna kinase panel screen; type: biochemical; conditions: read-out: % Inhibition ± SD
T12 construct: purchased Carna Biosciences
Description: as §1

NEK7 = target: T13, NEK7 (Homo sapiens, UniProt Q8TDX7); test: Carna kinase panel screen; type: biochemical; conditions: read-out: % Inhibition ± SD
T13 construct: purchased Carna Biosciences
Description: as §1

EGFR[L858R] = target: T14, EGFR[L858R] (Homo sapiens, UniProt P00533, L858R); test: Carna kinase panel screen; type: biochemical; conditions: read-out: % Inhibition ± SD
T14 construct: purchased Carna Biosciences
Description: as §1

PHKG1 = target: T15, PHKG1 (Homo sapiens, UniProt Q16816); test: Carna kinase panel screen; type: biochemical; conditions: read-out: % Inhibition ± SD
T15 construct: purchased Carna Biosciences
Description: as §1

FLT4 = target: T16, FLT4 (Homo sapiens, UniProt P35916); test: Carna kinase panel screen; type: biochemical; conditions: read-out: % Inhibition ± SD
T16 construct: purchased Carna Biosciences
Description: as §1

CDK2 = target: T17, CDK2 (Homo sapiens, UniProt P24941); test: Carna kinase panel screen; type: biochemical; conditions: read-out: % Inhibition ± SD
T17 construct: purchased Carna Biosciences
Description: as §1

FGFR4 = target: T18, FGFR4 (Homo sapiens, UniProt P22455); test: Carna kinase panel screen; type: biochemical; conditions: read-out: % Inhibition ± SD
T18 construct: purchased Carna Biosciences
Description: as §1

SGK2 = target: T19, SGK2 (Homo sapiens, UniProt Q9HBY8); test: Carna kinase panel screen; type: biochemical; conditions: read-out: % Inhibition ± SD
T19 construct: purchased Carna Biosciences
Description: as §1

PDGFRb = target: T20, PDGFRb (Homo sapiens, UniProt P09619); test: Carna kinase panel screen; type: biochemical; conditions: read-out: % Inhibition ± SD
T20 construct: purchased Carna Biosciences
Description: as §1

DAPK1 = target: T21, DAPK1 (Homo sapiens, UniProt P53355); test: Carna kinase panel screen; type: biochemical; conditions: read-out: % Inhibition ± SD
T21 construct: purchased Carna Biosciences
Description: as §1

MINK = target: T22, MINK (Homo sapiens, UniProt Q8N4C8); test: Carna kinase panel screen; type: biochemical; conditions: read-out: % Inhibition ± SD
T22 construct: purchased Carna Biosciences
Description: as §1

KG-1 = test: Viacount viability assay by flow cytometry; type: cell-based, human; conditions: 6 h pulse, up to 2 μM, assessed at 48 h
Description: (§2) AML cells were seeded at 5 x 10^5 cells/ml in a 6-well plate and incubated with the test compound or vehicle control (DMSO) for 6, 8 or 10 h. At the end of the incubation period, cells were collected into Falcon tubes, pelleted via centrifugation (5 min at 478 x g), and medium containing compound was aspirated. The cells were resuspended in 4 ml of fresh compound-free medium and returned to the 6-well plates for further incubation. Following compound addition, 100 μl (at 24 h), 75 μl (at 48 h), 50 μl (at 72 h) or 30 μl (at 96 h) of a homogeneous suspension of cells were removed from the culture, made up to 100 μl with medium and mixed with 100 μl Guava Viacount reagent (Millipore, Nottingham, UK) in a 96-well plate. Samples were incubated for 20 min in the dark, mixed and then analyzed by GuavaSoft 2.6 software on the Guava Easycyte 8HT (Millipore). Guava Viacount software was used to gate and calculate the proportion of viable and dead cells in the population.

HEL = test: Viacount viability assay by flow cytometry; type: cell-based, human; conditions: 6 h pulse, up to 2 μM, assessed at 48 h
Description: as §2

Kasumi-1 cells = test: Viacount viability assay by flow cytometry; type: cell-based, human; conditions: 6 h pulse, 0.5 or 1.0 μM, assessed at 24 h
Description: as §2

[2] = 40 mg/kg oral qd x 5 for 2 weeks
[3] = 55 mg/kg oral qd x 5 for 2 weeks

T13 sequence (Q8TDX7 whole entry): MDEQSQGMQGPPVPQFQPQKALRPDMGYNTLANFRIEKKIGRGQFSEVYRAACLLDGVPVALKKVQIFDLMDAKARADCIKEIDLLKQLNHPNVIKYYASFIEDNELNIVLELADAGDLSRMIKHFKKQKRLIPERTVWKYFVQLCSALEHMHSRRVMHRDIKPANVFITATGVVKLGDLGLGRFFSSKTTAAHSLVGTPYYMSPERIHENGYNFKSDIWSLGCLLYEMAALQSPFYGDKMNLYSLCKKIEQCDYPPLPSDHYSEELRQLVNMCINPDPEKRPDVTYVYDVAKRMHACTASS
T7 sequence (P07332 whole entry): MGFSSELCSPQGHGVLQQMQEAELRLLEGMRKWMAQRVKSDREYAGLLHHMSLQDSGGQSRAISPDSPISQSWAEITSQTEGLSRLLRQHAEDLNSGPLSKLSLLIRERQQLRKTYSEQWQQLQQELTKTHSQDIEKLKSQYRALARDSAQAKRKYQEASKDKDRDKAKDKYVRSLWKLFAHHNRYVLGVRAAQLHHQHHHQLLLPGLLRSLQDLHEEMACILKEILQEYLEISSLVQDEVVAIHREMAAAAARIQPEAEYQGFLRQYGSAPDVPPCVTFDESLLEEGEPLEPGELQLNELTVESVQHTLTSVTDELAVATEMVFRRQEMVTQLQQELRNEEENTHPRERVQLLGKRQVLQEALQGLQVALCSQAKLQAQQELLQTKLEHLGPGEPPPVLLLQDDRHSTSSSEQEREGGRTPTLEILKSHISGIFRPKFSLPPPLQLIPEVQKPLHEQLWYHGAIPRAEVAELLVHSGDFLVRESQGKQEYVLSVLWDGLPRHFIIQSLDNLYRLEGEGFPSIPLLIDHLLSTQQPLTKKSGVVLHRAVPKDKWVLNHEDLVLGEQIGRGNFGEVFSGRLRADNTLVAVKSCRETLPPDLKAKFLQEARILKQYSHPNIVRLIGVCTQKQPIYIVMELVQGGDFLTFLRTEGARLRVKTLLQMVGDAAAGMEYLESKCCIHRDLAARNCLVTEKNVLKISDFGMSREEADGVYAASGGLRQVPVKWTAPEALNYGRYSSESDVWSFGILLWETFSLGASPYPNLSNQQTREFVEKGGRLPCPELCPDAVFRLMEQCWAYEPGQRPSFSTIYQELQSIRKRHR
T5 sequence (P42679 whole entry): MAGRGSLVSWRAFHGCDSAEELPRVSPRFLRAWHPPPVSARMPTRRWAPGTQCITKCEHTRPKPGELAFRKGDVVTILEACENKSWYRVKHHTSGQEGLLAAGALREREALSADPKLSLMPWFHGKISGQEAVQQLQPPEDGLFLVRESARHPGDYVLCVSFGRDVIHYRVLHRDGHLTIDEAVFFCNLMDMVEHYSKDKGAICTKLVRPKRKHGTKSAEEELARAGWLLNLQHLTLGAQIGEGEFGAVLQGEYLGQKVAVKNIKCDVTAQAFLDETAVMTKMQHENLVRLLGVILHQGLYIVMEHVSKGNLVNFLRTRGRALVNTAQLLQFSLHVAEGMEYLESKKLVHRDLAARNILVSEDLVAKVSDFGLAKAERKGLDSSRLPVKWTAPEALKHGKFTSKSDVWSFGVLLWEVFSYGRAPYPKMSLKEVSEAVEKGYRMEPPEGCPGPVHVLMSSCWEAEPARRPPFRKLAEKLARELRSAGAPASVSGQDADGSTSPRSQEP
T21 sequence (P53355 whole entry): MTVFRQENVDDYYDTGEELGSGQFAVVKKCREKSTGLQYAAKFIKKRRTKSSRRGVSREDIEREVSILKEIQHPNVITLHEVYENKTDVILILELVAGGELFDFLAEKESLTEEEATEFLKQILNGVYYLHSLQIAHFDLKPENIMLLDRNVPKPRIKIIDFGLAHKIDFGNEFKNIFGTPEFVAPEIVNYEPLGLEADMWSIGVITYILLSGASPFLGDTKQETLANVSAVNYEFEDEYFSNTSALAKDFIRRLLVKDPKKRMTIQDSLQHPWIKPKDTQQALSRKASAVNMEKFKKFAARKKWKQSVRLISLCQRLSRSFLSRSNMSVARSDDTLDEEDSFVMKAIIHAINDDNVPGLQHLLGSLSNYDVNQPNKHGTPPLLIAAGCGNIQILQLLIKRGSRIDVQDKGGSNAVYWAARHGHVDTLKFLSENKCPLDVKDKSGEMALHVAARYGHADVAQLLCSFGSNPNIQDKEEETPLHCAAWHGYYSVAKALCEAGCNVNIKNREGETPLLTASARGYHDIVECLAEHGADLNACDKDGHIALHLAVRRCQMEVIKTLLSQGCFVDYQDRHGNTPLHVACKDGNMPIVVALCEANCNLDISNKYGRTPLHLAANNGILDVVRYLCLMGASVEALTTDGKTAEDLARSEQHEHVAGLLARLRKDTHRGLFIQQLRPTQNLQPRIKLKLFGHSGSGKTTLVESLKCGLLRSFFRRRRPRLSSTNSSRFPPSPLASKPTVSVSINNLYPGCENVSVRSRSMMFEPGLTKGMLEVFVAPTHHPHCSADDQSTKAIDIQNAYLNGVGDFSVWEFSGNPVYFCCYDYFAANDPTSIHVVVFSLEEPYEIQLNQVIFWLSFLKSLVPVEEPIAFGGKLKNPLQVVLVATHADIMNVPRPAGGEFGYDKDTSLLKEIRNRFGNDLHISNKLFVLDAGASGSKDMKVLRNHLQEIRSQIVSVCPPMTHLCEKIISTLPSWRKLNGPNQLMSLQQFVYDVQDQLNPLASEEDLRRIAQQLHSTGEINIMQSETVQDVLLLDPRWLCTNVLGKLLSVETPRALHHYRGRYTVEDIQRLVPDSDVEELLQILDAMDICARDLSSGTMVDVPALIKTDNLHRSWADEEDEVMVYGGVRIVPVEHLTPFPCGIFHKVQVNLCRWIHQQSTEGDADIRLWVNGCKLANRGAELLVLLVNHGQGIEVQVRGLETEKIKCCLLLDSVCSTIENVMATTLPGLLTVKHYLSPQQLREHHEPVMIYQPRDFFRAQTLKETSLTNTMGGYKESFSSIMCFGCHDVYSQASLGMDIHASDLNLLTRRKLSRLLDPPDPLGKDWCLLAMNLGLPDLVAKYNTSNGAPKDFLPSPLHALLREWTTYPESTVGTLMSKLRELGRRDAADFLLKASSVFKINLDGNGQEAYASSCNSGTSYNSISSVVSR
T1 sequence (P49760 whole entry): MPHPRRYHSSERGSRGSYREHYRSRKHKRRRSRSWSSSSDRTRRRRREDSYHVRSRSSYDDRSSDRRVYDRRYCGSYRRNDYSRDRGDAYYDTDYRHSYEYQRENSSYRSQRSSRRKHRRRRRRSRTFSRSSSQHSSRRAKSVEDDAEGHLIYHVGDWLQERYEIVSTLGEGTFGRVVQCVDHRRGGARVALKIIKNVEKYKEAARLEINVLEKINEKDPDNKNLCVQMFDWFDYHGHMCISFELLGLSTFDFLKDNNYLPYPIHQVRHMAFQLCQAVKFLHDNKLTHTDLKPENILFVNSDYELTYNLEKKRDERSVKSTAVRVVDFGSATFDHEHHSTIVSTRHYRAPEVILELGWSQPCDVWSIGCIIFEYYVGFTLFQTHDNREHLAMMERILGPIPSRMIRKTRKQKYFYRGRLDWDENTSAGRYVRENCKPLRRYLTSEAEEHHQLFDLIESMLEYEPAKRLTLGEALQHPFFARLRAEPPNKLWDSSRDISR
T19 sequence (Q9HBY8 whole entry): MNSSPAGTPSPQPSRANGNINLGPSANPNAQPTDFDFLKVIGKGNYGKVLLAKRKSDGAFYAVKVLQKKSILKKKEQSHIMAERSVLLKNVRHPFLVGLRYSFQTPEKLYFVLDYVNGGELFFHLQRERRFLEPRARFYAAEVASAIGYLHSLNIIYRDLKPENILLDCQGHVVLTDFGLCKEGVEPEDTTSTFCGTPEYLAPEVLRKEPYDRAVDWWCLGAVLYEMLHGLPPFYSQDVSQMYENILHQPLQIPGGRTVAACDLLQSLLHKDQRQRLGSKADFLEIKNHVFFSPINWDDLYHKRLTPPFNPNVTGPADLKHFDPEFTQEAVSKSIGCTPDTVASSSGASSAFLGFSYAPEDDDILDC
T8 sequence (P27361 whole entry): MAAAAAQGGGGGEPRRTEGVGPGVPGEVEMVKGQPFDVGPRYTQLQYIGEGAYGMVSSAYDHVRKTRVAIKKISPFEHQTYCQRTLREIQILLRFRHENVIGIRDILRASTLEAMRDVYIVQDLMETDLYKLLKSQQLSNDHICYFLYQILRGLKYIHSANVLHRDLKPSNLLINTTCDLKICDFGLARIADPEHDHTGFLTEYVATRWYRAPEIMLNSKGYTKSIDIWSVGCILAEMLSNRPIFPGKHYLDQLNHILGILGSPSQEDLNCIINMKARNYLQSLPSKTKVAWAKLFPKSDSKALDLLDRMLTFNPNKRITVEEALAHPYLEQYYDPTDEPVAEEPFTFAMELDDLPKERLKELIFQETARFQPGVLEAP
T6 sequence (P42681 whole entry): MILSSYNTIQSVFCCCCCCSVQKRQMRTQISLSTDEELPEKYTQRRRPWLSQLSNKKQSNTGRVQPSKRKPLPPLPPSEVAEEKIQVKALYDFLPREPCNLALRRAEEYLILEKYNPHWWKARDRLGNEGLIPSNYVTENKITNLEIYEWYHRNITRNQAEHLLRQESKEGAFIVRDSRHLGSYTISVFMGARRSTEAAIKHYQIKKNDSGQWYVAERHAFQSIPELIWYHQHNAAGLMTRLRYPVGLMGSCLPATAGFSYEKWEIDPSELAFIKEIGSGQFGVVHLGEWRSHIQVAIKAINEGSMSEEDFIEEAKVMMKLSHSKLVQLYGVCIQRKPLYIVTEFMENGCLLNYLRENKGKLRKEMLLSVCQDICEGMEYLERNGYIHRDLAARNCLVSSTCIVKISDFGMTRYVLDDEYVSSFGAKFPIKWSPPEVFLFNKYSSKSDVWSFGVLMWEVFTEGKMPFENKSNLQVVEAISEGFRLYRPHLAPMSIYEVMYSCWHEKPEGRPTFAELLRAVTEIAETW

CC[C@H](Nc1nc(NCc2cnc(C)cc2C)c2ncn(C(C)C)c2n1)[C@@H](C)O [Fadraciclib, 2-pentanol, 3-[[6-[[(4,6-dimethyl-3-pyridinyl)methyl]amino]-9-(1-methylethyl)-9Hpurin-2-yl]amino]-, (2R,3S)]
tumor growth inhibition (TGI) [1, 2]: 97%
median TGI [1, 2]: 95%
transient body weight loss ([1]; 55 mg/kg oral): 2%
tumor growth inhibition (TGI) [1, 3]: 100%
median TGI [1, 3]: 97%
duration of MCL1 suppression (MCL1): > 24 h
inhibition at 1 µM (CLK2): 87.8 ± 2%
inhibition at 1 µM (ITK): 2.3 ± 0.1%
inhibition at 1 µM (CDC7): -5.7%
inhibition at 1 µM (skMLCK): -9.8 ± 1.1%
inhibition at 1 µM (CTK): 3.4 ± 0.2%
inhibition at 1 µM (TXK): 3.1 ± 0.1%
inhibition at 1 µM (FES): 14.9 ± 1.1%
inhibition at 1 µM (Erk1): -6.5%
inhibition at 1 µM (DYRK1A): 5.5 ± 0.7%
inhibition at 1 µM (MST3): -16.4 ± 0.7%
inhibition at 1 µM (AKT1): -0.6%
inhibition at 1 µM (PDGFRa): 5.8 ± 0.2%
inhibition at 1 µM (NEK7): 0.9%
inhibition at 1 µM (EGFR[L858R]): 1.7%
inhibition at 1 µM (PHKG1): -15 ± 0.4%
inhibition at 1 µM (FLT4): 6.3 ± 0.2%
inhibition at 1 µM (CDK2): 97.3%
inhibition at 1 µM (FGFR4): -14.8%
inhibition at 1 µM (SGK2): 0.9%
inhibition at 1 µM (PDGFRb): 3.2 ± 0.1%
inhibition at 1 µM (DAPK1): -8.8 ± 0.1%
inhibition at 1 µM (MINK): -15.8 ± 0.3%
apoptosis (non-viable cells) (KG-1): approximately 50%
apoptosis (non-viable cells) (HEL): no appreciable increase in apoptosis
cells induced into apoptosis (dead cells) (Kasumi-1 cells): up to 80%
